The text below walks through data of patent US20210113602A1, “USE OF 6-THIO-2'-DEOXYGUANOSINE (6-THIO-dG) TO TREAT MELANOMA” (The Board of Regents of the University of Texas System, priority 2018, published 2021).

Type in all cases: cell-based, human
Assay [1] has as its system NRAS mutant melanoma cells. Put plainly: Relative cell number, Crystal Violet assay. Conditions: 6, 12 or 18 days; relative to DMSO. The protocol: Supplementary FIGS. 8a-d. NRAS mutant melanoma cells are sensitive to the telomere uncapping agent 6-thio-dG. NRAS^mut melanoma cells were treated with 6-thio-dG for 6, 12 or 18 days. (Supplementary FIG. 8a) Relative cell number was assessed by […] Violet assay and calculated relative to DMSO-treated cells. Data represent average of three independent experiments +/-SD. (Supplementary FIG. 8b) Representative pictures of cells treated with 6-thio-dG for the indicated days and stained with Crystal Violet. (Supplementary FIG. 8c) NRAS^mut cells were treated with 6-thio-dG for 7 days and telomere-induced foci (TIF) were determined by indirect immunofluorescence combined with fluorescence in situ hybridization (FISH). Cells were considered TIF-positive when for or more co-localizing foci of telomeres and γ-H2AX were found. (Supplementary FIG. 8d) Quantification of TIF assay. Cells were scored as TIF-positive when four or more γ-H2AX foci (green) were co-localizing with telomere foci (red). Data represent average of […]. P values were calculated by unpaired Student's t-test.

Assay [2] concerns KRAS mutant A549 cells. The assay can be described thus: Cell death, Annexin V/PI. Conditions: 1 μM 6-thio-dG, 5 μM Gam.
Assay [3] relates to NRAS mutant SKNAS cells. The assay can be described thus: Cell death, Annexin V/PI. As to conditions: single agents or combination; 1 μM 6-thio-dG, 5 μM Gam.
For assay [4], the system named is detoxifying enzymes such as SOD2, GPX1 and UCP2. Put plainly: mRNA levels of detoxifying enzymes by qRT-PCR. Conditions: 1 μM 6-thio-dG for 7 days. The protocol:
FIGS. 3a-g. Telomere dysfunction enhances oxidative stress leading to upregulation of an antioxidant program. (FIGS. 3a-d) NRASmut melanoma cells were transduced with TERT shRNA (FIG. 3a, FIG. 3c) or treated with 1 μM 6-thio-dG for 7 days (FIG. 3b, FIG. 3d). mRNA levels of the indicated genes were quantified by qRT-PCR (FIG. 3a, FIG. 3b). Mitochondrial superoxide production was measured by MitoSox Red fluorescence (FIG. 3c, FIG. 3d) and expressed as fluorescence relative to vector or DMSO controls. (FIG. 3e) NRASmut melanoma cells were treated with 1 μM of 6-thio-dG for the indicated times and SOD2 protein levels measured by Western blotting. (FIG. 3f) SOD2 was silenced using shRNA. Transduced M93-047 cells were treated with DMSO or 1 μM of 6-thio-dG and cell death was assessed by Annexin V/PI straining. (FIG. 3g) M93-047 cells were transduced with a SOD2 lentiviral construct or empty vector control (pLX304). Transduced cells were treated with increasing doses (1, 2.5 and 5 μM) of 6-thio-dG for 7 days and cell death was assessed. Data represent average from three independent experiments±SEM. *p<0.05; **p<0.01; ***p<0.005 in unpaired Student's t-test.

For `Nc1nc2c(ncn2[C@H]2C[C@H](O)[C@@H](CO)O2)c(=S)[nH]1` [6-thio-dG, 6-thio-2′-deoxy-guanosine], the “relative cell number (sensitivity)” value in assay [1] is on record as “sensitive”. Besides, the cell death entry in assay [2] is recorded as “did not induce substantial death”. In assay [3], the cell death result is recorded as “triggered significant death”. For the same compound, in assay [4], the GPX1 expression entry is given as “upregulation”, the SOD2 expression entry is listed as “upregulation” and the UCP2 expression result is given as “upregulation”.
